Experimental data as given in patent publication US6897198B2, “Method of treatment with combinations of statin and aryl-substituted propanolamine derivatives” (Aventis Pharma Deutschland GmbH, priority 1998, dated 2005).

Tests used:
[1] = biological target: T1, Na+-dependent bile acid transport system (Oryctolagus cuniculus, UniProt Q28727); test: Inhibition of Na+-dependent [3H]-taurocholate uptake in rabbit ileum cuticular layer membrane vesicles; format: biochemical; settings: Table 1, 50 μM taurocholate, incubation normally 1 minute
T1 construct: Cuticular layer membrane vesicles were prepared from ileum cells by the so-called Mg^2+ precipitation method; from tissue; host or cells: terminal ileum of male New Zealand rabbits (brush-border / cuticular layer membrane vesicles)
T1 sequence (Q28727 1-347): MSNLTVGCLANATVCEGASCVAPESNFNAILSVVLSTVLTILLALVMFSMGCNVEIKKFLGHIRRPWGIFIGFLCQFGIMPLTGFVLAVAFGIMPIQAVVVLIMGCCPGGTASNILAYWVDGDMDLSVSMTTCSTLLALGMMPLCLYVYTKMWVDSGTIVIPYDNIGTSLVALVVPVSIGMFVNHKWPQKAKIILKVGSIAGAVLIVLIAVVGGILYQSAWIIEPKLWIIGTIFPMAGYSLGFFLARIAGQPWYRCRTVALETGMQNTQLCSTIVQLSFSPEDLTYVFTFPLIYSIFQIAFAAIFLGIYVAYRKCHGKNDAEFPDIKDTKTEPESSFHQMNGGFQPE
Method: The compounds according to the invention were tested in a biotest by determining the inhibition of [^3H]-taurocholate uptake in rabbit ileum cuticular layer membrane vesicles. The inhibitory test was carried out as follows:
1. Preparation of Rabbit Ileum Cuticular Layer Membrane Vesicles
Cuticular layer membrane vesicles were prepared from ileum cells by the so-called Mg^2+ precipitation method. Male New Zealand rabbits (body weight 2 to 2.5 kg) were sacrificed by intravenous injection of 0.5 ml T61®, an aqueous solution of 2.5 mg of tetracaine —HCl, 100 mg of embutramide and 25 mg of mebezonium iodide. The ileum was removed and washed with ice-cold physiological saline. The terminal 7/10th of the ileum (measured in the oral-rectal direction, i.e., the terminal ileum, which contains the active Na^+-dependent bile acid transport system) were used for preparing the cuticular layer membrane vesicles. The intestines were frozen in polymer bags at −80° C. under nitrogen. To prepare the membrane vesicles, the frozen intestines were defrosted in a water bath at 30° C. The mucosa was scraped off and suspended in 60 ml of ice-cold 12 mM TRIS/HCl buffer (pH 7.1)/300 mM mannitol, 5 mM EGTA/10 mg/l phenylmethylsulfonyl fluoride/1 mg/l soybean trypsin inhibitor (32 (U/mg)/0.5 mg/l bovine lung trypsin inhibitor (193 U/mg)/5 mg/l bacitracin. After the mixture had been diluted to 300 ml with ice-cold distilled water, it was homogenized in an Ultraturrax (rod 18, IKA Werk Staufen, Germany) for 3 minutes at 75% of maximum speed, with ice-cooling. After 3 ml of 1 M MgCl2 solution had been added (final concentration 10 mM), the mixture was left to stand at 0° C. for exactly 1 minute. The addition of Mg^2+ causes the cell membranes to aggregate and precipitate with the exception of the cuticular layer membranes. After centrifugation for 15 minutes at 3000×g (5000 rpm, SS-34 rotor), the precipitate was discarded, and the supernatant, which contains the cuticular layer membranes, was centrifuged for 30 minutes at 48,000×g (20,000 rpm, SS-34 rotor). The supernatant was discarded, and the precipitate was rehomogenized in 60 ml of 12 mM TRIS/HCl buffer (pH 7.1)/60 mM mannitol, 5 mM EGTA using a Potter Elvejhem homogenizer (Braun, Melsungen, 900 rpm, 10 strokes). After addition of 0.1 ml of 1 M MgCl2 solution and incubation for 15 minutes at 0° C., the mixture was again centrifuged for 15 minutes at 3000×g. The supernatant was subsequently centrifuged for a further 30 minutes at 48,000×g (20,000 rpm, SS-34 rotor). […]
The uptake of substrates into the above-described cuticular layer membrane vesicles was determined by means of the so-called membrane filtration technique. […]

gallstone-sensitive mice = test: Test for gallstone formation (cholesterol gallstone formation, lithogenic diet); format: in vivo; settings: male C57L mice, 100 mg/kg/d (0.1% in the feed), 13 weeks, lithogenic diet alone 5/15
Method: Test for Gallstone Formation • 1. Test Substance, Dose and Application • Example 9 of Table 1 (=A1) 100 mg/kg/d 0.1% in the feed • 2. Aim
In this test, the cholesterol gallstone formation in gallstone-sensitive mice was investigated. • 3. Materials and Methods • 3.1 Animals and Housing
The experimental animals used are male C57L mice (Jackson Laboratories) with an average body weight of 25-30 g at the beginning of the adaptation.
The animals were randomly divided into 4 groups (n=10, groups 2 and 3 n=15). Starting at the beginning of the treatment, the mice were either fed a standard rodent feed by Altromin (group 1), or a lithogenic diet by Altromin (groups 2-4); this diet was composed as follows: 15% butter, 1% cholesterol, 50% sugar, 20% casein, 0.5% cholic acid, 5% mineral mix, 2.5% vitamin mix, 2% corn oil, corn starch to 100%. The animals were weighed weekly, and the food consumption was determined by continuous weighings before and after, whereby the dose was calculated. • 3.2. Final Examination
After 11 and 13 weeks, respectively, the animals of each group were sacrificed and the gallbladders subsequently prepared. Gallstones in the gallbladder were then recorded. The gallbladder was dissected, the weight was determined, and the composition of the bile and the gallstones was analyzed.

Structure (SMILES): O=C(CCC(=O)Nc1ccccc1[C@@H](Nc1ccccn1)[C@H](c1ccccn1)[C@H](O)c1ccccc1)NC[C@H](O)[C@@H](O)[C@H](O)[C@H](O)CO [Example 15]
- Bio. Test (quotient of the IC50Na values of the reference substance taurochenodesoxycholate (TCDC) and the test substance) [1]: 0.19

Structure (SMILES): O=C(CCCCCCCCCCNC(=O)[C@H](O)[C@@H](O)[C@H](O)[C@H](O)CO)Nc1ccccc1[C@@H](Nc1ccccn1)[C@H](c1ccccn1)[C@H](O)c1ccccc1 [Example 9]
- Bio. Test (quotient of the IC50Na values of the reference substance taurochenodesoxycholate (TCDC) and the test substance) [1]: 1.78
- Frequency of gallstones (n/n) (gallstone-sensitive mice): 0/10

Structure (SMILES): CC(=O)OC[C@@H](OC(C)=O)[C@@H](OC(C)=O)[C@H](OC(C)=O)[C@@H](OC(C)=O)C(=O)NCCCCCCCCCCC(=O)Nc1ccccc1[C@@H](Nc1ccccn1)[C@H](c1ccccn1)[C@H](O)c1ccccc1 [Example 8]
- Bio. Test (quotient of the IC50Na values of the reference substance taurochenodesoxycholate (TCDC) and the test substance) [1]: 0.83

Structure (SMILES): O=C(NCCCNc1ccccc1[C@@H](Nc1ccccn1)[C@H](c1ccccn1)[C@H](O)c1ccccc1)[C@H](O)[C@@H](O)[C@H](O)[C@H](O)CO [Example 2]
- Bio. Test (quotient of the IC50Na values of the reference substance taurochenodesoxycholate (TCDC) and the test substance) [1]: 0.24
